Laboratory results reported in PubChem BioAssay (NCI).
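Test compounds were applied to cells in 96-well plates for 48 hours at 5 doses. TGI denotes the concentration required for complete inhibition of growth.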

Assays:
Assay in all cases: NCI tumour cell line growth inhibition, 48 h
CAKI-1 renal = tested on: CAKI-1 renal
SNB-75 CNS = tested on: SNB-75 CNS
HOP-62 NSCLC = tested on: HOP-62 NSCLC
HL-60(TB) leukemia = tested on: HL-60(TB) leukemia
RXF 393 renal = tested on: RXF 393 renal
COLO 205 colon = tested on: COLO 205 colon
OVCAR-3 ovarian = tested on: OVCAR-3 ovarian
786-0 renal = tested on: 786-0 renal
A549 NSCLC = tested on: A549 NSCLC
DU-145 prostate = tested on: DU-145 prostate
HS 578T breast = tested on: HS 578T breast
NCI-H460 lung = tested on: NCI-H460 lung
IGROV1 ovarian = tested on: IGROV1 ovarian
LOX IMVI melanoma = tested on: LOX IMVI melanoma
MALME-3M melanoma = tested on: MALME-3M melanoma
CCRF-CEM leukemia = tested on: CCRF-CEM leukemia
NCI-H522 lung = tested on: NCI-H522 lung
OVCAR-8 ovarian = tested on: OVCAR-8 ovarian
MDA-N = tested on: MDA-N
OVCAR-4 ovarian = tested on: OVCAR-4 ovarian
EKVX NSCLC = tested on: EKVX NSCLC
SR leukemia = tested on: SR leukemia
MOLT-4 leukemia = tested on: MOLT-4 leukemia
UO-31 renal = tested on: UO-31 renal
U251 CNS = tested on: U251 CNS
SF-539 CNS = tested on: SF-539 CNS
BT-549 breast = tested on: BT-549 breast
M14 melanoma = tested on: M14 melanoma
NCI-H23 lung = tested on: NCI-H23 lung
HOP-92 NSCLC = tested on: HOP-92 NSCLC
MDA-MB-231 breast = tested on: MDA-MB-231 breast
SF-268 CNS = tested on: SF-268 CNS
NCI/ADR-RES ovarian = tested on: NCI/ADR-RES ovarian
T-47D breast = tested on: T-47D breast
OVCAR-5 ovarian = tested on: OVCAR-5 ovarian
SK-MEL-28 melanoma = tested on: SK-MEL-28 melanoma
A498 renal = tested on: A498 renal
TK-10 renal = tested on: TK-10 renal
NCI-H226 lung = tested on: NCI-H226 lung
HCT-116 colon = tested on: HCT-116 colon
HT29 colon = tested on: HT29 colon
HCC-2998 colon = tested on: HCC-2998 colon
UACC-257 melanoma = tested on: UACC-257 melanoma
SNB-19 CNS = tested on: SNB-19 CNS
MCF7 breast = tested on: MCF7 breast
ACHN renal = tested on: ACHN renal
SK-OV-3 ovarian = tested on: SK-OV-3 ovarian
SF-295 CNS = tested on: SF-295 CNS
SN12C renal = tested on: SN12C renal
RPMI-8226 leukemia = tested on: RPMI-8226 leukemia
SW-620 colon = tested on: SW-620 colon
SK-MEL-2 melanoma = tested on: SK-MEL-2 melanoma
K-562 leukemia = tested on: K-562 leukemia
PC-3 prostate = tested on: PC-3 prostate
KM12 colon = tested on: KM12 colon
MDA-MB-435 = tested on: MDA-MB-435
SK-MEL-5 melanoma = tested on: SK-MEL-5 melanoma
HCT-15 colon = tested on: HCT-15 colon
UACC-62 melanoma = tested on: UACC-62 melanoma

O=C1c2ccccc2C(=O)N1CCCC(=O)n1cc(F)c(=O)[nH]c1=O
TGI (CAKI-1 renal): > 100 µM | TGI (SNB-75 CNS): > 100 µM | TGI (HOP-62 NSCLC): > 24.6 µM | TGI (HL-60(TB) leukemia): > 100 µM | TGI (RXF 393 renal): > 100 µM | TGI (COLO 205 colon): > 100 µM | TGI (OVCAR-3 ovarian): > 79 µM | TGI (786-0 renal): > 100 µM | TGI (A549 NSCLC): > 100 µM | TGI (DU-145 prostate): > 100 µM | TGI (HS 578T breast): > 100 µM | TGI (NCI-H460 lung): > 100 µM | TGI (IGROV1 ovarian): > 100 µM | TGI (LOX IMVI melanoma): > 100 µM | TGI (MALME-3M melanoma): > 100 µM | TGI (CCRF-CEM leukemia): > 100 µM | TGI (NCI-H522 lung): > 100 µM | TGI (OVCAR-8 ovarian): > 100 µM | TGI (MDA-N): > 100 µM | TGI (OVCAR-4 ovarian): > 100 µM | TGI (EKVX NSCLC): > 100 µM | TGI (SR leukemia): > 100 µM | TGI (MOLT-4 leukemia): > 100 µM | TGI (UO-31 renal): > 100 µM | TGI (U251 CNS): > 100 µM | TGI (SF-539 CNS): > 100 µM | TGI (BT-549 breast): > 100 µM | TGI (M14 melanoma): > 100 µM | TGI (NCI-H23 lung): > 100 µM | TGI (HOP-92 NSCLC): > 100 µM | TGI (MDA-MB-231 breast): > 100 µM | TGI (SF-268 CNS): > 100 µM | TGI (NCI/ADR-RES ovarian): > 100 µM | TGI (T-47D breast): > 100 µM | TGI (OVCAR-5 ovarian): > 100 µM | TGI (SK-MEL-28 melanoma): > 100 µM | TGI (A498 renal): > 100 µM | TGI (TK-10 renal): > 100 µM | TGI (NCI-H226 lung): > 100 µM | TGI (HCT-116 colon): > 100 µM | TGI (HT29 colon): > 100 µM | TGI (HCC-2998 colon): > 100 µM | TGI (UACC-257 melanoma): > 100 µM | TGI (SNB-19 CNS): > 100 µM | TGI (MCF7 breast): > 100 µM | TGI (ACHN renal): > 100 µM | TGI (SK-OV-3 ovarian): > 100 µM | TGI (SF-295 CNS): > 100 µM | TGI (SN12C renal): > 100 µM | TGI (RPMI-8226 leukemia): > 77.5 µM | TGI (SW-620 colon): > 100 µM | TGI (SK-MEL-2 melanoma): > 100 µM | TGI (K-562 leukemia): > 100 µM | TGI (PC-3 prostate): > 100 µM | TGI (KM12 colon): > 100 µM | TGI (MDA-MB-435): > 100 µM | TGI (SK-MEL-5 melanoma): > 100 µM | TGI (HCT-15 colon): > 100 µM | TGI (UACC-62 melanoma): > 100 µM

[N-]=[N+]=NCC1OC(n2cnc3c(N)ncnc32)C2OC12 (stereo not drawn)
TGI (CAKI-1 renal): > 100 µM | TGI (SNB-75 CNS): > 100 µM | TGI (HOP-62 NSCLC): > 100 µM | TGI (HL-60(TB) leukemia): > 100 µM | TGI (RXF 393 renal): > 100 µM | TGI (COLO 205 colon): > 100 µM | TGI (OVCAR-3 ovarian): > 100 µM | TGI (786-0 renal): > 100 µM | TGI (A549 NSCLC): > 100 µM | TGI (DU-145 prostate): > 100 µM | TGI (HS 578T breast): > 100 µM | TGI (NCI-H460 lung): > 100 µM | TGI (IGROV1 ovarian): > 100 µM | TGI (LOX IMVI melanoma): > 100 µM | TGI (MALME-3M melanoma): > 100 µM | TGI (CCRF-CEM leukemia): > 100 µM | TGI (NCI-H522 lung): > 100 µM | TGI (OVCAR-8 ovarian): > 100 µM | TGI (MDA-N): > 100 µM | TGI (OVCAR-4 ovarian): > 100 µM | TGI (EKVX NSCLC): > 100 µM | TGI (SR leukemia): > 100 µM | TGI (MOLT-4 leukemia): > 100 µM | TGI (UO-31 renal): > 100 µM | TGI (U251 CNS): > 100 µM | TGI (SF-539 CNS): > 100 µM | TGI (BT-549 breast): > 100 µM | TGI (M14 melanoma): > 100 µM | TGI (NCI-H23 lung): > 100 µM | TGI (HOP-92 NSCLC): > 100 µM | TGI (MDA-MB-231 breast): > 100 µM | TGI (SF-268 CNS): > 100 µM | TGI (NCI/ADR-RES ovarian): > 100 µM | TGI (T-47D breast): > 100 µM | TGI (OVCAR-5 ovarian): > 100 µM | TGI (SK-MEL-28 melanoma): > 100 µM | TGI (A498 renal): > 100 µM | TGI (TK-10 renal): > 100 µM | TGI (NCI-H226 lung): > 100 µM | TGI (HCT-116 colon): > 100 µM | TGI (HT29 colon): > 100 µM | TGI (HCC-2998 colon): > 100 µM | TGI (UACC-257 melanoma): > 100 µM | TGI (SNB-19 CNS): > 100 µM | TGI (MCF7 breast): > 100 µM | TGI (ACHN renal): > 100 µM | TGI (SK-OV-3 ovarian): > 100 µM | TGI (SF-295 CNS): > 100 µM | TGI (SN12C renal): > 100 µM | TGI (RPMI-8226 leukemia): > 100 µM | TGI (SW-620 colon): > 100 µM | TGI (SK-MEL-2 melanoma): > 100 µM | TGI (K-562 leukemia): > 100 µM | TGI (PC-3 prostate): > 100 µM | TGI (KM12 colon): > 100 µM | TGI (MDA-MB-435): > 100 µM | TGI (SK-MEL-5 melanoma): > 100 µM | TGI (HCT-15 colon): > 100 µM | TGI (UACC-62 melanoma): > 100 µM
